Laboratory results from US10197557B2, “Small molecules for endothelial cell activation” (The Regents of the University of California, priority 2011, dated 2019).
Entries after “also recorded” stand apart in the source; their conditions may differ.

Legend:
human endothelial cells = test: EC-PBMC co-culture assay, chemokines quantified by cytometric bead arrays; assay type: cell-based; conditions: for EC activation of octahydro-1,6-naphthyridin-4-one analogs (percent induction relative to IFNγ): focused library of 96 analogs, initial test (FIG. 6A, 6B)
Description: FIGS. 9A-9C show a further embodiment of the invention biological platform for the detection of activated endothelium. (A) Primary endothelial cells were seeded to confluence in a 96 well format and activated by IFNγ (10 ng/ml). After 5 hours, IFNγ was removed, wells were washed, and then primary human peripheral blood mononuclear cells (PBMC) were added at a ratio of 3:1 (PBMC:EC). 20-24 hours later, supernatants were removed and chemokines were quantified by cytometric bead arrays. (B) MIP1β production, but not MIP1α or IL8 levels, reliably detects endothelium activated by IFNγ. Chemokines produced in co-culture conditions with quiescent vs. activated EC; data represent the results from n=7 (MIP1α and MIP1β) and n=6 (IL8) independent experiments. (C) Chemical library screen for compounds that activate human endothelium. A 642 compound library was added following the same method as in A and B. Controls included DMSO and IFNγ on each plate. Supernatants were measured for chemokines by cytometric bead arrays.
Activation of the endothelium is intricately linked to innate immunity. […] Therefore we hypothesized that compounds that “activate” the endothelium could be identified indirectly—endothelium encountering activating compounds would gain the capacity to trigger chemokine production by monocytes. To test this hypothesis, we designed an EC-monocyte co-culture system amenable to high-throughput compound screening (FIG. 9A). […] Subsequently, EC were treated with DMSO (vehicle control), IFNγ (EC-activation control), and a collection of 642 compounds (final concentration, […]) (FIG. 9C). Of the 642 compounds, 37 (5.8%) promoted MIP1β production (FIG. 5A).
HUVEC were grown to 80-90% confluency in T150 flasks (Corning). On the day of experiments, HUVEC were harvested and plated at a confluent density in 96 well plates; these were either half or full volume plates, requiring 2.5-5×10^4 EC per well, respectively, in complete EBM-2 media (Lonza). After adherence for 2-3 hours, IFNγ (10 ng/ml), DMSO, or compound library (final concentration, […]) was added in incomplete EBM-2 media (Lonza). After 5 hours, stimuli were removed and cells were gently washed twice with RPMI (Invitrogen), followed by addition of 7.5-10×10^4 human PBMC in 10% FCS. For cytokine analysis, […] was removed at 24 hours for CBA analysis. The biological effects observed were not attributable to either LPS contamination, nor to cellular toxicity, as determined by flow cytometric analysis and 3-(4,5-dimethylhiazol-2-yl)-2,5-diphenyl tetrazolium bromide (MTT) assay.
[…] of supernatant from EC alone, PBMC alone, or co-culture conditions was collected for CBA analysis for IL8, MIP1α, and MIP1β. CBA was performed as per the manufacturer's recommendations (Becton Dickinson). Standard curves and all samples were acquired on a FacsCalibur flow cytometer and data was analyzed using FloJo software.

HUVEC = test: Transcriptome profiling (microarray) of treated EC, Ingenuity Pathway Analysis; assay type: cell-based, human; conditions: 10 μM, 5 hours; for gene probes induced in comparison to vehicle control: fold change >1.25, p-value <0.05
Description: HUVEC were grown as described above, and then plated at 1×10^6 in 6 well plates in complete EBM-2. […] After 5 hours, media was removed and RNA was extracted using Trizol (Invitrogen), followed by RNeasy Minelut Cleanup Kit (Qiagen). RNA was taken to the UCLA Microarray Core Center where it was processed using the Human Genome Affymetrix U133 Plus 2.0 Array. Microarray data was analyzed using dChip software (version Nov. 18, 2007) from the Cheng Li Lab at http://biosun1.harvard.edu/complab/dchip. For statistical analysis using dChip software, only gene probes that were minimally present in two of the three replicates were used, and parameters for significance were set at fold change >1.25, p-value <0.05. Total number of probes present for active analogue (D10): 30,228. […] Unsupervised dendrograms were created using dChip software. Genes with known function in immune regulation were selected based on published databases and gene functions identified by Gene Ontology or OMIM; dendrogram was created using dChip software.
Experimental results were compared using student t-tests; results were considered significant if p-value was <0.05. Canonical network analysis for all expressed probes in D10 and E2 datasets was performed by using Ingenuity Pathway Analysis software (version 6.0; Ingenuity Systems).

E-selectin = E-selectin expression on EC by flow cytometric analysis; assay type: cell-based, human; conditions: in comparison to vehicle control (FIG. 8C)
Description: (§1) HUVEC were stimulated with IFNγ, DMSO, or compounds of interest (10 μM) for 5 hours. Stimuli were removed and cells were gently washed and media was replaced with 10% FCS for 24 hours. Cells were stained with anti-ICAM1 and anti-E-selectin, or appropriate isotype antibodies. For intracellular chemokine staining, stimulations of HUVEC were carried out as mentioned above with IFNγ, DMSO and compound of interest. After 8 hours of PBMC and HUVEC co-culture incubation, Golgi Plug (Becton Dickinson) was added to the culture and incubation carried out for an additional 16 hours. After the incubation cells were fixed, permeabilized and stained with anti-CD14 and anti-MIP1b or appropriate isotype controls. Samples were then analyzed with a FacsCalibur flow cytometer and subsequent data analysis was performed using FloJo software.

MIP1β = test: Intracellular flow cytometry of EC-PBMC co-cultures (CD14, MIP1β); assay type: cell-based, human; conditions: PBMC added to activated EC (FIG. 5D)
Description: as §1

Row | Compound | EC activation of octahydro-1,6-naphthyridin-4-one analogs (percent induction relative to IFNγ) (human endothelial cells) | further results
1 | Cc1ccc(S(=O)(=O)N2[C@H](c3ccccc3)CC(=O)[C@@H]3CN(S(C)(=O)=O)[C@H](c4ccccc4)C[C@@H]32)cc1 [2B2] | lost their activity; also recorded: inactive | 
2 | Cc1ccc(S(=O)(=O)N2C[C@H]3[C@@H](O)C[C@@H](c4ccccc4)N(S(=O)(=O)c4ccc(C)cc4)[C@H]3C[C@H]2c2cccc(Cl)c2)cc1 [2B6] | active | 
3 | CCO[C@H]1C[C@@H](c2ccccc2)N(S(=O)(=O)c2ccc(C)cc2)[C@H]2C[C@@H](c3cccc(Cl)c3)N(S(=O)(=O)c3ccc(C)cc3)C[C@@H]12 [2B7] | active | 
4 | Cc1ccc([C@@H]2C[C@H]3[C@@H](CN2S(=O)(=O)c2ccccc2)C(=O)C[C@@H](c2ccccc2)N3S(=O)(=O)c2ccc(C)cc2)cc1 [C8] | active | 
5 | COc1ccc([C@@H]2C[C@H]3[C@@H](CN2S(=O)(=O)c2ccccc2)C(=O)C[C@@H](c2ccc(C)cc2)N3S(=O)(=O)c2ccc(C)cc2)cc1 [C9] | active | 
6 | COc1ccc([C@@H]2CC(=O)[C@@H]3CN(S(=O)(=O)c4ccc(C)cc4)[C@H](c4ccccc4)C[C@@H]3N2S(=O)(=O)c2ccccc2)cc1 [D5] | did not exhibit EC-activation; also recorded: inactive | 
7 | Cc1ccc([C@@H]2C[C@H]3[C@@H](CN2S(=O)(=O)c2ccc(C)cc2)C(=O)C[C@@H](c2ccc(C)cc2)N3S(=O)(=O)c2ccc(C)cc2)cc1 [D6] | active | 
8 | COc1ccc([C@@H]2CC(=O)[C@@H]3CN(S(=O)(=O)c4ccc(C)cc4)[C@H](c4ccc(C)cc4)C[C@@H]3N2S(=O)(=O)c2ccccc2)cc1 [D9] | did not exhibit EC-activation; also recorded: inactive | 
9 | CCc1ccc([C@@H]2C[C@H]3[C@@H](CN2S(=O)(=O)c2ccc(C)cc2)C(=O)C[C@@H](c2ccc(CC)cc2)N3S(=O)(=O)c2ccc(C)cc2)cc1 [D10] | active | gene probes induced in comparison to vehicle control (HUVEC; EC): 201 gene probes; canonical pathways engaged (Ingenuity Pathway Analysis) (HUVEC; induced genes of EC): 32 canonical pathways; E-selectin gene induction (HUVEC; microarray, EC): uniquely induced; E-selectin expression levels (protein) (E-selectin): markedly enhanced
10 | CCc1ccc([C@@H]2C[C@H]3[C@@H](CN2S(=O)(=O)c2ccc(C)cc2)C(=O)C[C@@H](c2ccc(Cl)cc2)N3S(=O)(=O)c2ccc(C)cc2)cc1 [D11] | active | 
11 | CCc1ccc([C@@H]2C[C@H]3[C@@H](CN2S(=O)(=O)c2ccc(C)cc2)C(=O)C[C@@H](c2ccc(OC)cc2)N3S(=O)(=O)c2ccccc2)cc1 [E2] | some activity; also recorded: inactive | gene probes induced in comparison to vehicle control (HUVEC; EC): 49 gene probes; networks related to immune regulation activated (HUVEC; induced genes of EC): did not activate any networks related to immune regulation; EC activation, confirmatory studies (human endothelial cells; validation of analogs, FIG. 6C, two independent experiments in triplicate wells): relatively inactive
12 | Cc1ccc(S(=O)(=O)N2C[C@H]3C(=O)C[C@@H](c4ccccc4)N(S(=O)(=O)c4ccc(C)cc4)[C@H]3C[C@H]2c2ccccc2F)cc1 [E3] | active | 
13 | COc1ccc([C@@H]2CC(=O)[C@@H]3CN(S(=O)(=O)c4ccc(C)cc4)[C@H](c4ccccc4F)C[C@@H]3N2S(=O)(=O)c2ccccc2)cc1 [E8] | did not exhibit EC-activation; also recorded: inactive | 
14 | COc1ccc([C@@H]2CC(=O)[C@@H]3CN(S(=O)(=O)c4ccc(Cl)cc4)[C@H](c4ccc(C)cc4)C[C@@H]3N2S(=O)(=O)c2ccccc2)cc1 [F7] | did not exhibit EC-activation; also recorded: inactive | 
15 | COc1ccc([C@@H]2C[C@H]3[C@@H](CN2S(=O)(=O)c2ccccc2)C(=O)C[C@@H](c2ccc(OC)cc2)N3S(=O)(=O)c2ccccc2)cc1 [F10] | did not exhibit EC-activation; also recorded: inactive | 
16 | CCOc1cc(-c2ccccc2)nc2c1CN(S(=O)(=O)c1ccc(C)cc1)[C@H](c1cccc(Cl)c1)C2 [G9] | inactive | 
17 | Cc1ccc(S(=O)(=O)N2CC[C@H]3[C@@H](C2)C(=O)C[C@@H](c2ccccc2)N3S(=O)(=O)c2ccc(C)cc2)cc1 [H6] | did not affect the naphthyridinone's EC-activation; also recorded: active | 
18 | Cc1ccc(S(=O)(=O)N2C[C@H]3C(=O)C[C@@H](c4ccccc4)N(S(C)(=O)=O)[C@H]3C[C@H]2c2ccccc2)cc1 [H11] | lost their activity; also recorded: inactive | 
19 | interferon gamma [IFNγ] |  | dominant producers of MIP1β in co-culture (MIP1β): CD14+ monocytes; MIP1α production in co-culture (human endothelial cells; treated EC co-cultured with PBMC (FIG. 10B)): comparable levels; IL8 production from monocytes in co-culture (human endothelial cells; treated EC co-cultured with PBMC, in comparison to DMSO (FIG. 10A)): inhibited
